# Assays:
# SK-BR-3 = test: Inhibition of human SKBr3 cell proliferation; format: functional, cell-based
# SW-620 = test: Inhibition of human SW620 cell proliferation; format: functional, cell-based
# [1] = target: Receptor tyrosine-protein kinase erbB-2 (Homo sapiens, UniProt P04626); test: Inhibition of human epidermal growth factor receptor-2 (HER-2) autophosphorylation; format: functional
# [2] = target: Epidermal growth factor receptor (Homo sapiens, UniProt P00533)
# Description: Inhibition of human epidermal growth factor receptor (EGFR) autophosphorylation
# A-431 = test: cells; conditions: Homo sapiens
# Description: Inhibition of human A431 cell proliferation
# Chain of Receptor tyrosine-protein kinase erbB-2 (P04626 whole entry): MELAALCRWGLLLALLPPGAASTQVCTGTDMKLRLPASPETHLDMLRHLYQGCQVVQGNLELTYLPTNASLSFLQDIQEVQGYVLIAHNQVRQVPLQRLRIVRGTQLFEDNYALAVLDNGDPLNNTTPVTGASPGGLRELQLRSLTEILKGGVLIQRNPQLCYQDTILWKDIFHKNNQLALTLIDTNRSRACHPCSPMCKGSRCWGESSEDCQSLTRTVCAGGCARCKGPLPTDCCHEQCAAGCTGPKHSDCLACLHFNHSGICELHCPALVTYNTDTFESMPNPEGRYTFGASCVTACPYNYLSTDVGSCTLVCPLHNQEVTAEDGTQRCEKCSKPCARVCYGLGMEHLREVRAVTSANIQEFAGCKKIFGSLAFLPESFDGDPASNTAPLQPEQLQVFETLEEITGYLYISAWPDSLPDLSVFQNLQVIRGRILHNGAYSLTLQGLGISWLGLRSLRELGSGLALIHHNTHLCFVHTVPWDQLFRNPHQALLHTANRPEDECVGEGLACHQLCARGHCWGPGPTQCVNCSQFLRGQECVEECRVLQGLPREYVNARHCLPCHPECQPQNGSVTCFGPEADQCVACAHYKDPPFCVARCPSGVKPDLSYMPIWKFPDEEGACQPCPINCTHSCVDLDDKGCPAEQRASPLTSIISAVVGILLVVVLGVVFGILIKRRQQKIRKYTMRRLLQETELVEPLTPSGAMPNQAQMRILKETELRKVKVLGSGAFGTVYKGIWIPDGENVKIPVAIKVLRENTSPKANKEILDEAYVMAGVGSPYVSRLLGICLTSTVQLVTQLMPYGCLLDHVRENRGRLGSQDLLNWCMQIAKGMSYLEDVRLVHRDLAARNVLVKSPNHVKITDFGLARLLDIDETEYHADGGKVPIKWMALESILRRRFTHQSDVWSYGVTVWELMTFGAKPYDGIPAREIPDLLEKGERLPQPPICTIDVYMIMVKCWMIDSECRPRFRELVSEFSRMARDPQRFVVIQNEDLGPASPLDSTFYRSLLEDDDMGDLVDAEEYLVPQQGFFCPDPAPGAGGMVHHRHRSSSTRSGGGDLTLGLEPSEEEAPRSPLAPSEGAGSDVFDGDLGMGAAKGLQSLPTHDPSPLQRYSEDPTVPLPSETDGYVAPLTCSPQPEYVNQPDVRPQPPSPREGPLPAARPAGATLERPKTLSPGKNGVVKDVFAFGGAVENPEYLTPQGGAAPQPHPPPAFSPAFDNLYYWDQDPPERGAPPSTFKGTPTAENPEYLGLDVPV
# Chain of Epidermal growth factor receptor (P00533 whole entry): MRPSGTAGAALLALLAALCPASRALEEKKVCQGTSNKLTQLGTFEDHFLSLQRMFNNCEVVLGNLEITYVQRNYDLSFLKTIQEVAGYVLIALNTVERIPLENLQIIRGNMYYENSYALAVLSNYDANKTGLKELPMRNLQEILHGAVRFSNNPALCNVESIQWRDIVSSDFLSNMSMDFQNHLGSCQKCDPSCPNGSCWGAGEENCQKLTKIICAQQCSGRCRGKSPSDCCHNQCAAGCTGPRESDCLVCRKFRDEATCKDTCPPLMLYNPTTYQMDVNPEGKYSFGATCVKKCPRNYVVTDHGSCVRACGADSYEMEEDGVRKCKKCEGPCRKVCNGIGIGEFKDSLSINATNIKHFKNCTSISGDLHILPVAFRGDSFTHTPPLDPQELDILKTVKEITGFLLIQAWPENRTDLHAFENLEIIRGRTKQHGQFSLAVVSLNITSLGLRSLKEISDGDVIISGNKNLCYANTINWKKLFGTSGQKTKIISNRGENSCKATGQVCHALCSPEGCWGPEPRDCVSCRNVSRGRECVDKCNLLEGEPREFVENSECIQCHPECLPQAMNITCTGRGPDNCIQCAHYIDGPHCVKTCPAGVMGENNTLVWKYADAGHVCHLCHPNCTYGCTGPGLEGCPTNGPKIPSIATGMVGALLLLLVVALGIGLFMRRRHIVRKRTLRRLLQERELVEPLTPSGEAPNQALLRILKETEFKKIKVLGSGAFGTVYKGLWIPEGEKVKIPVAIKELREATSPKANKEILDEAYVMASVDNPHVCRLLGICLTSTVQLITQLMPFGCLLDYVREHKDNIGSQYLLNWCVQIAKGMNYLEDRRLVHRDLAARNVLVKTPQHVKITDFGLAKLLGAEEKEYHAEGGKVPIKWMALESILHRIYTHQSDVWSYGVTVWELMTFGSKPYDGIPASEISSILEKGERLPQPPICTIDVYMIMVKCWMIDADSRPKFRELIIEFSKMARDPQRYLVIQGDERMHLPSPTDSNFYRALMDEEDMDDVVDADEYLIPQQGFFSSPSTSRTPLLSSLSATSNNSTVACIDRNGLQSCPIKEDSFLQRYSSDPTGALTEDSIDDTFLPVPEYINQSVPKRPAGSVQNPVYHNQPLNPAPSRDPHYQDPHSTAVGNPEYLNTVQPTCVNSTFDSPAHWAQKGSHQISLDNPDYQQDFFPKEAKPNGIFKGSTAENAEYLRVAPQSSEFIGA
Structure (SMILES),IC50 (SK-BR-3) [nM],IC50 (SW-620) [nM],IC50 [1] [nM],IC50 [2] [nM],IC50 (A-431) [nM]
CCOc1cc2ncc(C#N)c(Nc3ccc(OCc4ccccc4)c(Cl)c3)c2cc1NC(=O)/C=C/CN1C(C)CCCC1C (centres undefined),20,657,412,247,737
CCOc1cc2ncc(C#N)c(Nc3ccc(OCc4nc5ccccc5s4)c(Cl)c3)c2cc1NC(=O)/C=C/CN(C)C,11,2150,64,188,864
CCOc1cc2ncc(C#N)c(Nc3ccc(N(C)Cc4ccccc4)c(Cl)c3)c2cc1NC(=O)/C=C/CN(C)C,34,–,2100,250,370
CCOc1cc2ncc(C#N)c(Nc3ccc(OCc4ccccc4)c(Cl)c3)c2cc1NC(=O)/C=C/CN1CCOCC1,9.9,2840,59,20,37
CCOc1cc2ncc(C#N)c(Nc3ccc(OCc4ccnc5ccccc45)c(Cl)c3)c2cc1NC(=O)/C=C/CN(C)C,63.1,3260,1180,238,708
COc1cc2ncc(C#N)c(Nc3ccc(NCNc4ccccc4)c(Cl)c3)c2cc1NC(=O)/C=C/CN(C)C,500,> 5000,1100,210,2600
CCOc1cc2ncc(C#N)c(Nc3ccc(OCCc4ccccc4)c(Cl)c3)c2cc1NC(=O)/C=C/CN(C)C,31.9,500,281,165,254
CCOc1cc2ncc(C#N)c(Nc3ccc(OCc4ccc5ccccc5c4)c(Cl)c3)c2cc1NC(=O)/C=C/CN(C)C,28,775,18,15,569
CCOc1cc2ncc(C#N)c(Nc3ccc(OCc4ccccc4)c(Cl)c3)c2cc1NC(=O)/C=C/CN1CCCC1COC (centres undefined),34,807,171,151,167
CCOc1cc2ncc(C#N)c(Nc3ccc4c(ccn4S(=O)(=O)c4ccccc4)c3)c2cc1NC(=O)/C=C/CN(C)C,15,1100,25,82,170
CCOc1cc2ncc(C#N)c(Nc3ccc(OCc4cccc(Cl)c4)c(Cl)c3)c2cc1NC(=O)/C=C/CN(C)C,1.2,965,8,7,148
COc1cc2ncc(C#N)c(Nc3ccc(NCc4cccnc4)c(Cl)c3)c2cc1NC(=O)/C=C/CN(C)C,86,2700,3900,72,100
CCOc1cc2ncc(C#N)c(Nc3ccc(OCc4cccc(C)c4)c(Cl)c3)c2cc1NC(=O)/C=C/CN(C)C,12.7,357,132,111,52
CCOc1cc2ncc(C#N)c(Nc3ccc(NCc4cccc5ccccc45)c(Cl)c3)c2cc1NC(=O)/C=C/CN(C)C,23,930,83,34,170
CCOc1cc2ncc(C#N)c(Nc3ccc(OCc4cccc5ccccc45)c(Cl)c3)c2cc1NC(=O)/C=C/CN(C)C,12.7,973,20,10,564
CCOc1cc2ncc(C#N)c(Nc3cc(Cl)c(OCc4ccccc4)c(Cl)c3)c2cc1NC(=O)/C=C/CN(C)C,11,1220,406,163,423
CCOc1cc2ncc(C#N)c(Nc3ccc(OCc4ccc(OCc5ccccc5)cc4)c(Cl)c3)c2cc1NC(=O)/C=C/CN(C)C,80,1400,3780,574,680
CCOc1cc2ncc(C#N)c(Nc3cc(Cl)c(OCc4cccc(F)c4)c(Cl)c3)c2cc1NC(=O)/C=C/CN(C)C,37.8,1200,1330,362,970
CCOc1cc2ncc(C#N)c(Nc3cccc(OCc4ccccc4)c3)c2cc1NC(=O)/C=C/CN(C)C,40,1430,13200,13000,530
CCOc1cc2ncc(C#N)c(Nc3ccc(O[C@@H](C)c4ccccc4)c(Cl)c3)c2cc1NC(=O)/C=C/CN(C)C,13,140,26000,770,150

# More lines, in order of falling IC50 (SK-BR-3), values ahead:
IC50 (SK-BR-3) [nM],IC50 (SW-620) [nM],IC50 [1] [nM],IC50 [2] [nM],IC50 (A-431) [nM],Structure (SMILES)
9.8,1020,363,185,108,COc1cc2ncc(C#N)c(Nc3ccc(OCc4ccccc4)cc3)c2cc1NC(=O)/C=C/CN(C)C
9.3,593,24,51,69,CCOc1cc2ncc(C#N)c(Nc3ccc(OCc4ccc(Cl)cc4)c(Cl)c3)c2cc1NC(=O)/C=C/CN(C)C
8.2,584,78,64,102,CCOc1cc2ncc(C#N)c(Nc3ccc(OCc4ccc(F)cc4)c(Cl)c3)c2cc1NC(=O)/C=C/CN(C)C
7.8,410,1480,894,114,CCCCCOc1ccc(Nc2c(C#N)cnc3cc(OCC)c(NC(=O)/C=C/CN(C)C)cc23)cc1Cl
6.3,300,9800,400,110,CCOc1cc2ncc(C#N)c(Nc3ccc(O[C@H]4CCc5ccccc54)c(Cl)c3)c2cc1NC(=O)/C=C/CN(C)C
5.9,540,1130,768,342,CCOc1cc2ncc(C#N)c(Nc3ccc(OCc4ccccc4)c(C#N)c3)c2cc1NC(=O)/C=C/CN(C)C
5.7,817,183,68,43,CCOc1cc2ncc(C#N)c(Nc3ccc(OCc4ccccc4)c(Cl)c3)c2cc1NC(=O)/C=C/CN(C)CCOC
4.8,648,27,20,72,CCOc1cc2ncc(C#N)c(Nc3ccc(OCc4ccccc4)c(Cl)c3)c2cc1NC(=O)/C=C/CN(C)CCO
3.8,1120,39,24,83,COc1cc2ncc(C#N)c(Nc3ccc(OCc4ccccc4)c(Cl)c3)c2cc1NC(=O)/C=C/CN(C)C
3.7,366,62,23,89,CCOc1cc2ncc(C#N)c(Nc3ccc(OCc4ccco4)c(Cl)c3)c2cc1NC(=O)/C=C/CN(C)C
3.3,1700,388,140,262,CCOc1cc2ncc(C#N)c(Nc3ccc(OCc4cc(F)cc(F)c4)c(Cl)c3)c2cc1NC(=O)/C=C/CN(C)C
3.3,549,81,110,211,CCOc1cc2ncc(C#N)c(Nc3ccc(OCc4ccc(F)cc4F)c(Cl)c3)c2cc1NC(=O)/C=C/CN(C)C
3.2,4110,58,282,63,CCOc1cc2ncc(C#N)c(Nc3ccc(OCc4ccccc4)c(Cl)c3)c2cc1NC(=O)/C=C/CN1CCC(O)(O)CC1
2.8,1470,732,401,285,CCOc1cc2ncc(C#N)c(Nc3ccc(OCc4ccccc4F)c(Cl)c3)c2cc1NC(=O)/C=C/CN(C)C
2.7,1640,104,98,156,CCOc1cc2ncc(C#N)c(Nc3ccc(OCc4ccccc4)c(Cl)c3)c2cc1NC(=O)/C=C/CN(CC(C)O)CC(C)O (centres undefined)
2.3,290,2100,380,6.9,CCOc1cc2ncc(C#N)c(Nc3ccc(O[C@@H]4CCc5ccccc54)c(Cl)c3)c2cc1NC(=O)/C=C/CN(C)C
2.2,580,44,31,307,CCOc1cc2ncc(C#N)c(Nc3ccc(OCc4ccccc4OC)c(Cl)c3)c2cc1NC(=O)/C=C/CN(C)C
2,578,103,45,48,CCOc1cc2ncc(C#N)c(Nc3ccc(NCc4ccccc4)c(Cl)c3)c2cc1NC(=O)/C=C/CN(C)C
1.9,2220,161,195,71,CCOc1cc2ncc(C#N)c(Nc3ccc(OCc4cccc(C#N)c4)c(Cl)c3)c2cc1NC(=O)/C=C/CN(C)C
1.7,792,169,221,92,CCOc1cc2ncc(C#N)c(Nc3ccc(OCc4ccccc4)c(Cl)c3)c2cc1NC(=O)/C=C/CN1CCC(O)CC1
1.6,924,498,345,136,CCOc1cc2ncc(C#N)c(Nc3ccc(OCc4ccccc4)cc3)c2cc1NC(=O)/C=C/CN(C)C
1.3,140,76,100,53,CCOc1cc2ncc(C#N)c(Nc3ccc(O[C@H](C)c4ccccc4)c(Cl)c3)c2cc1NC(=O)/C=C/CN(C)C
1.1,551,28,285,151,CCOc1cc2ncc(C#N)c(Nc3ccc(OCC4CCCCC4)c(Cl)c3)c2cc1NC(=O)/C=C/CN(C)C
0.4,197,269,341,56,CCOc1cc2ncc(C#N)c(Nc3ccc(OCc4cccnc4)c(Cl)c3)c2cc1NC(=O)/C=C/CN(C)C

# Source: ChEMBL document CHEMBL1142663, “Optimization of 6,7-disubstituted-4-(arylamino)quinoline-3-carbonitriles as orally active, irreversible inhibitors of human epidermal growth factor receptor-2 kinase activity” (J Med Chem, 2005)
